Measurements: patent publication US8217071B2, “Use of inhibitors of the degradation of p27, in particular Argyrin and derivatives thereof, for the treatment of proliferative diseases” (Helmholtz Zentrum für Infektionsforschung GmbH, priority 2007, dated 2012)
Numbered stars: 1 amine (or outer) side, 2 acyl side, 3 side chain; on linkers, the order of the positions; unused ones are H or OH. Square brackets hold non-standard residues; d marks the D form. Peptide text beside a SMILES is read from it. dAla(ψthiazole) = C[C@@H](N[*:1])c1nc(C(=O)[*:2])cs1; Trp(4-OMe) = COc1cccc2[nH]cc(C[C@H](N)C(=O)O)c12; Dha = C=C(N)C(=O)O; Sar = CNCC(=O)O

Key:
[1] = system: mouse embryonic fibroblasts from p27^kip1 wildtype mice; assay: Apoptosis (sub-G1 fraction) by flow cytometry in p27 wildtype MEF; format: cell-based; conditions: for apoptosis in p27 wildtype MEF: sub G1 fraction
Excerpt: Next the inventors tested whether the stabilization of p27 was indeed required for the apoptosis inducing function of Argyrin A or was merely a consequence of proteasome inhibition. For this the inventors treated immortalized mouse embryonic fibroblasts from p27^kip1 wildtype or knockout mice with Argyrin A or the proteasome inhibitor bortezomib and assayed cell cycle distribution and apoptosis by flow cytometry. […] These differences in sensitivity in response to Argyrin A treatment were not due to differences in the accumulation of other proteasomal substrates in p27 wildtype and knockout cells as p53 and p21 levels increased in both cell lines in response to Argyrin A (FIG. 6B). To extend this observation to human cancer cells the inventors reduced the levels of p27^kip1 in HeLa cells using p27^kip1 specific siRNA.
The results shown are the average numbers for six independent experiments. b+d) Wildtype (b) and p27 knockout (d) MEF were treated with Argyrin A or transfected with siRNAs specific for the β1, β2 or β5 subunit of the proteasome for 24 hours. The graphs show the remaining catalytic activity of the different proteasome subunits after Argyrin A or siRNA treatment compared to an untreated control (n=3). The western blots show the expression of the β1, β2 or β5 subunit of the proteasome in proliferating cells and after treatment with siRNAs for a representative experiment. c+e) Flow cytometric measurements of the number of apoptotic cells (sub-G1 fraction) after Argyrin A or siRNA treatment in wildtype (c) or p27 knockout (E) MEF. f) HeLa cells were treated with Argyrin A or siRNA against p27 or Argyrin A and siRNA against p27 for either 24 or 48 hours.
MTT assays were done as previously described (Sasse, F. et al. Argyrins, immunosuppressive cyclic peptides from myxobacteria. I. Production, isolation, physico-chemical and biological properties. J Antibiot (Tokyo) 55, 543-51 (2002)). TUNEL staining of tissue sections was performed on 10 micrometer sections which were deparafinised and treated as recommended by the manufacturer. (In Situ Cell Death Detection Kit, Fluorescein; ROCHE, Cat #11 684 795 910). Flow cytometric analysis of cultured cells was done using a Becton Dickinson fluorescence cytometer as previously described (Malek, N. P. et al. A mouse knock-in model exposes sequential proteolytic pathways that regulate p27^Kip1 in G1 and S phase. Nature 413, 323-7 (2001)). Analysis of the distribution of cells in the cell cycle and the sub-G1 fraction was done using Cell Quest software. A histone-associated-DNA-fragments ELISA was used to determine the number of apoptotic cells according to manufacturers instructions (Roche #11 774425001).

[2] = system: HCT116 colon carcinoma xenotransplant tumours; assay: HCT116 xenotransplant tumours in nu/nu mice; format: in vivo, mouse; conditions: HCT116 derived tumor-xenografts
Experimental: Treatment with Argyrin A or bortezomib was started when these tumours reached a volume of 200 mm3. […] (n=8 Argyrin A, n=8 Bortezomib, n=6 PBS/EtOH) b) The pictures show the macroscopic appearance of a xenotransplant tumour after 10 days of treatment with Argyrin A. Note the large necrotic centre of the explanted tumour. c) After a single injection of Argyrin A (0.15 mg/kg bodyweight) or bortezomib (1.0 mg/kg bodyweight) tumours were explanted at the indicated time points and blood vessels in the tumour tissue were co-stained for CD31 and p27. […] Note the swelling of the endothelial cell (“E”) and the occlusion of the lumen (“L”) by erythrocytes after 90 minutes of Argyrin A treatment. The arrow marks the detachment of endothelial cells after 48 h of Argyrin A treatment. […] Tube length (f) and blood vessel like […] structures were determined using photographs of HUVEC cultures. The micrographs show representative examples of HUVEC cultures under the indicated conditions.
1×10^7 SW480 cells or HCT116 cells (in 100 microliters DMEM medium and 100 microliters matrigel) were s.c. injected into the flanks of NMRI nu/nu mice. Tumours grew for approx. 18 days until they reached appropriate size (200 mm3). Tumour size was measured with a digital calliper and calculated with the help of the following formula: (Length×width2)*π/6. […]

[3] = system: p27^kip1-GFP fusion protein in HeLa cells; assay: High throughput screen for p27 stabilizing substances; format: cell-based, human; conditions: 70 nM
Excerpt: To identify substances which lead to an increase in the expression levels of p27^kip1 the inventors generated a cell based high throughput assay system (see materials and methods for details). […] As shown by flow cytometry, Argyrin A exerted two different cellular phenotypes at ranges of IC50. […] The apoptosis inducing activity of Argyrin A was confirmed by measuring DNA fragmentation using a histone fragmentation ELISA (FIG. 5B).
A cellular high throughput screen for p27 stabilizing compounds was established by stably introducing a DNA plasmid (EGFP-N1, Clontech) which allows the expression of p27^kip1-GFP fusion protein in HeLa cells. p27-GFP expressing cells were selected with neomycin and several independent clones were subcultured. HeLa p27-GFP cells were seeded in 384 well plates (Corning) and incubated with a set of highly diverse natural products (part of the Helmholtz Center for Infection Research myxobacterial metabolite collection) at a concentration of 70 nM. GFP emission was determined by fluorometric measurements using a Victor 1420 multilabel counter (Perkin Elmer) at 3 h, 24 h, 48 h and 60 h after the start of treatment. The proteasome inhibitor MG132 was used as a positive control.

p27^kip1 = p27^kip1 expression time course by western blotting; format: cell-based, human; conditions: SW480, HCT116 and HeLa cells
Experimental: The expression levels of p27^kip1 were determined at the indicated timepoints by western blotting and normalized against actin expression which was used as an internal control.
Immunohistochemical staining of mouse tumour tissue, western Blotting and immunofluorescence experiments were done as previously described (Timmerbeul, I. et al. Testing the importance of p27 degradation by the SCFskp2 pathway in murine models of lung and colon cancer. Proc Natl Acad Sci USA 103, 14009-14 (2006). Kossatz, U. et al. C-terminal phosphorylation controls the stability and function of p27^kip1. Embo J 25, 5159-70 (2006).). The following antibodies were used: p27 (Cat. No. K25020-150; Transduction Labs), p21 (N20; Santa Cruz), p53 (FL-393; Santa Cruz), NfKB (C-20; Santa Cruz), Bax (P-19; Santa Cruz), Alexa fluor 488 (# A11001; Invitrogen), 20S-proteasome subunit beta 2 (Z) (PW9300; Bio-mol, for human cells), 20S-proteasome subunit beta 2 (Z) (PW8145; BIO TREND, for mouse cells); 20S proteasome subunit beta 1(Y) (PW8140; BIO TREND), 20S proteasome subunit beta 5 (PW8895; BIO TREND); PECAM Antibody clone MEC 13.3 (#550274; BD Pharmingen).

Row | SMILES | apoptosis in p27 wildtype MEF [1] | apoptosis in p27 wildtype MEF ([1]; listed as Bortezomib) | tumour volume [2] | increase in fluorescence (p27-GFP) [3] | apoptosis, share of all cells, wildtype fibroblasts ([1]; after 24 hours) [%] | cellular p27^kip1 levels (p27^kip1)
1 | CC(C)C[C@H](NC(=O)[C@H](Cc1ccccc1)NC(=O)c1cnccn1)B(O)O [bortezomib, reference compound] | massive apoptosis | induced apoptosis |  |  |  | 
2 | C=C1NC(=O)[C@@H](C)NC(=O)CNC(=O)[C@H](Cc2c[nH]c3cccc(OC)c23)NC(=O)[C@H](Cc2c[nH]c3ccccc23)NC(=O)c2csc(n2)[C@@H](C)NC(=O)CN(C)C1=O [Argyrin A] (cyclo(W[Trp(4-OMe)]G[dA][Dha][Sar][dAla(ψthiazole)])) | induced apoptosis |  | significant reduction | strongest increase in fluorescence | 38 | increase
